# Assay results published in patent US12070458B2, “Therapeutic agent composition and method of use, for treatment of mild congnitive impairment, depression, and psychological disorders” (priority 2018, dated 2024).
# Residues, ends and D or L forms follow the SMILES beside them.
# What was measured:
# [1] = tested on: damaged nerve tissue (crushed spinal cord); assay: Regeneration of damaged nerve tissue after crushing the spinal cord; format: in vivo, Wistar rats; conditions: 10 mM in saline, 0.75 ml four times a day at the site of injury for 14 days, versus saline
# Description: Postnatal day 4 Wistar 10 rats were used for the study. The rats were divided in 2 groups: one group of 5 animals treated with drug solution, and the other group of animals treated with 0.9% sodium chloride (saline) solution. A drug solution containing cPG (from Bachem, 10 mM solution prepared in 0.9% sodium chloride (saline) solution) was administered four times a day in volumes of 0.75 ml to thoroughly flood the site of injury.
# Two days after crushing the spinal cord, the dura of a rat was opened and a polyethylene tube was sutured to the vertebral spines and adjacent soft tissues so that the opening in one end lay directly over the injured part of the spinal cord. The tubing was brought through a subcutaneous tunnel so that its other end emerged at the base of the skull. A syringe adapter was attached to the external opening for injecting the drugs. All experiments were on a double-blind basis on 2 groups: one group of 5 animals treated with drug solution of 10 mM in saline solution, and the other group of 5 animals treated with 0.9% sodium chloride (saline) solution. Treatment of every animal was continued for 14 days, after which the animals were killed and histological sections prepared.
# Postnatal day 4 Wistar 10 rats were used for the study. […]
# [2] = tested on: cerebellar microexplants (P4); assay: Glutamate induced neuronal death in cerebellar microexplants (P4); format: cell-based, Wistar rats; conditions: for neuron number compared to the normal control group: a further lower dose; for recovery from glutamate-induced neurotoxicity: lower doses 10-100 nM, simultaneously with glutamate
# Description: Cerebellar Cell Culture Preparing and Coating of Cover Slips
# Ten coverslips were placed into a large petri dish and washed in 70% alcohol for 5 minutes, then washed with Millipore H2O. The coverslips were air dried, then coated with Poly-D-Lysine (1 mg/ml stock solution in PBS, 90-100 μl) and incubated for 2 hours at 34° C.
# Postnatal day 4 Wistar rats were used for the study. Rats were placed in ice for 1 minute, the heads were decapitated and the cerebellum removed on ice. Cerebellum tissue was placed in 1 ml of 0.65% glucose supplemented PBS (10 μl 65% stock D (+)glucose/1 ml PBS) in a large petri dish, chopped up into smaller sections and triturate with a 1 ml insulin syringe via a 23 G (0.4 mm) needle, and then squirted back into the glucose solution on the large petri dish. The tissue was sieved through (125 μm pore size gaze) and centrifuged (2 minutes at 60 g) two times for a medium exchange into serum-free BSA-supplemented START V medium (Biochrom). The second centrifugation step was done with 1 ml of START V medium. The microexplants were reconstituted into 500 μl of START V medium and put on ice.
# Cultivation and Fixation of Cerebellar Cells
# Two hours after PDL-coating, the slides were washed with Millipore H2O and air dried. Each slide was placed into a small 35 mm petri dish and 40 μl of START V/cell suspension added. The tissue was incubated for 2 hours at 34° C. (settlement period). START V-medium (1 ml) was then added to the petri dish and cultivated at 34° C./5% CO2/100% humidity for 48 hours. Cells were rinsed in PBS and then fixed for 2-3 minutes in increasing concentrations of paraformaldehyde (500 μl of 0.4% PFA was applied; then 1.2% PFA; then 3% PFA and finally 4% PFA—all fixation solutions contain 0.2% glutardialdehyde). Finally, the microexplants were rinsed in PBS.
# (§1) 10 μl of toxin (L-glutamate-100 mM in Millipore water) was applied simultaneously with cPG (from bachem, 10 mM stock prepared in PBS and diluted to final concentrations between 1-100 nM) for Study 1. A delay in administration of cPG at 6 hours after glutamate treatment was performed for Study 2.
# as §1, with “cyclic(tri(prolylglycyl)) (which was obtained from NeuroBiomed, San Jose, California),” for “cPG (from bachem,”, “cyclic(tri(prolylglycyl))” for “cPG”
# as §1, with “cyclic Glycyl-2-Methyl Proline (obtained NeuroBiomed, San Jose California),” for “cPG (from bachem,”
# [3] = tested on: scopolamine-induced memory impairment; assay: Morris Water Maze, scopolamine-induced memory impairment; format: in vivo, Wistar rats; conditions: 20 mg/kg; daily, oral; scopolamine 0.5 mg/kg i.p.
# [4] = 1-100 nM given 6 hours after the glutamate treatment, compared to vehicle
# [5] = administered simultaneously with glutamate, 1-100 nM, glutamate alone 85% loss of neurons
structure (smiles),measurement,setting,value
"O=C1NCC(=O)N2CCC[C@H]2C(=O)NCC(=O)N2CCC[C@H]2C(=O)NCC(=O)N2CCCC12 (stereo partly drawn) [c(PG)3, cyclic (glycyl-L-prolylglycyl-L-prolylglycyl-L-prolyl)] (HELM PEPTIDE1{G.P.G.P.G.[O=C(C1CCCN1[*:1])[*:2]]}$PEPTIDE1,PEPTIDE1,1:R1-6:R2$$$V2.0)",nerve growth into the lesion site (histology),[1],prolific nerve growth
same,"improvement, recovery from glutamate induced neurotoxicity",[2]; [4],approximately 43%
same,neuron number compared to the normal control group,[2],significant increase
same,reduction of glutamate induced neuronal death,[2]; [5],57%
same,recovery from glutamate-induced neurotoxicity,[2],significant recovery
"O=C1NCC(=O)N2CCC[C@@H]12 [cPG, cyclic Prolyl Glycine]",nerve growth into the lesion site (histology),[1],most prolific nerve growth
same,recovery from glutamate induced neurotoxicity,[2]; [4],significantly recovery
same,neuron number compared to the normal control group,[2],significant increase
same,glutamate induced neuronal death,[2]; [5],significantly reduced
same,recovery from glutamate-induced neurotoxicity,[2],significant recovery
same,cognitive impairment induced by scopolamine (time to platform),[3],significantly reversed
